# From patent US5624924A, “Quinobenzothiazine antineoplastic agents” (priority 1994, dated 1997)
# Counter-ions that a name gives are not always drawn. Like-named read-outs stand apart in the source and are kept apart here.
# Legend:
# [1] = system: A549 human lung cancer cell line; test: In vitro cytotoxicity (MTT), A549; type: cell-based; details: A549, 72 h
# Description: (§1) Metabolic activity was measured by the cells' ability to reduce the tetrazolium dye, 3-(4,5-dimethylthiazol-2-yl)-2,5-diphenyltetrazolium bromide (MTT), to a quantifiable colored formasan derivative. Surviving cells reduce the MTT dye. The inhibitory concentrations of killing 50% of the cells (IC50 s) were calculated. Testing was in accord with the following protocol:
# (§2) Test compounds and a reference antineoplastic agent, ADRIAMYCIN (doxorubicin hydrochloride), were dissolved in dimethyl sulfoxide (DMSO) and diluted, first with Earle's Balanced Salt Solution, followed by culture medium, to twice the highest concentration of the compound to be tested. From this concentrated stock, two-fold serial dilutions were prepared in 96-well microtiter trays, each well containing twice the desired final concentration of the compound. Each concentration was tested in triplicate and compared to triplicate drug-free controls.
# (§3) The cells were grown in the same medium used for diluting the compounds. Adherent cells were harvested by trypsinization according to the following procedure:
# (§4) After harvesting by trypsinization, viable cell counts were determined and cell density was adjusted to 25,000 cells/mL. Inoculum (0.1 mL) was then added to each well for a final concentration of 2,500 cells per well. Addition of the inoculum was used to dilute the test compounds to the desired concentration.
# (§5) Microtiter trays were incubated for three days at 36° C. in a humidified atmosphere containing 5% carbon dioxide.
# (§6) After three days, 20 microliters of 5 mg/mL MTT in phosphate-buffered solution were added to each well of the microtiter trays. The microtiter trays were then returned to the incubator for two to four hours to allow the surviving cells to reduce the dye. After this incubation, both the medium and the unreduced dye were removed by aspiration. DMSO was added to each well to dissolve the water-insoluble, colored end product of the dye reduction for spectrophotometric measurement at 570 nm.
# (§7) The results obtained which clearly show the cytotoxicity of the compounds of Examples 5, 6, 7 and 8 against […] tumor cell lines A549, HCT-8, HT-29 and P388-D1, are illustrated in Table 1. (A549 is a human lung cancer cell line; HCT-8 is a human colon cancer cell line; HT-29 is a human colon cancer cell line; and P388-D1 is a mouse leukemia cell line.)
# [2] = system: HT-29 human colon cancer cell line; test: In vitro cytotoxicity (MTT), HT-29; type: cell-based; details: HT-29, 72 h
# Description: as §1, §2, §3, §4, §5, §6, §7
# [3] = system: P388 mouse leukemia cell line; test: In vitro cytotoxicity (MTT), P388; type: cell-based; details: P388, 72 h, read-out: In Vitro Cytotoxicity (IC50)
# Description: as §1, §2, §3, §4, §5, §6
# (§8) Compounds from Examples 4, 6, 8, 9 and 10 were additionally tested against human and murine tumor cell lines A549, HT-29, P388-D1, P388, P388-ADR(0.0), P388-ADR(0.1) and B16F109. (P388 is a mouse leukemia cell line similar to P388-D1, but animal-passaged; P388-ADR (0.0) is an ADRIAMYCIN-resistant variant of P388, the inoculum of which is grown in drug-free medium; P388-ADR (0.1) is an ADRIAMYCIN-resistant variant of P388, the inoculum of which is grown in medium with 0.1 mcg.ml ADRIAMYCIN; and B16F10 is a mouse melanoma.) The results are presented in Table 2; as shown in the table, the compounds of the present invention are effective cytotoxic agents even against the ADRIAMYCIN-resistant cell line P388-ADR.
# [4] = system: P388-ADR(0.0), ADRIAMYCIN-resistant variant of P388; test: In vitro cytotoxicity (MTT), P388-ADR(0.0); type: cell-based; details: Mus musculus, 72 h, inoculum grown in drug-free medium, Table 2
# Description: as §1, §2, §3, §4, §5, §6, §8
# [5] = system: B16F10 mouse melanoma; test: In vitro cytotoxicity (MTT), B16F10; type: cell-based; details: B16-F10, 72 h, read-out: In Vitro Cytotoxicity (IC50)
# Description: as §1, §2, §3, §4, §5, §6, §8
# [6] = system: P388-D1 mouse leukemia cell line; test: In vitro cytotoxicity (MTT), P388-D1; type: cell-based; details: Mus musculus, P388D1, 72 h, read-out: In Vitro Cytotoxicity (IC50), P388-D1
# Description: as §1, §2, §3, §4, §5, §6, §7
# [7] = system: C-26 colon adenocarcinoma; test: In vivo activity against C-26 implanted intraperitoneally (Example 44); parameters: species or system mouse
# Description: (§9) The title compound of Example 37 above was tested against solid tumors in mice, using 1,3-bis(2-chloroethyl)-1-nitrosourea (BCNU) as a positive control. The tumor lines were M5076, an ovarian sarcoma implanted intraperitoneally (IP), and C-26, a colon adenocarcinoma, implanted intraperitoneally (IP) and subcutaneously (SC) in separate trials.
# (§10) All drugs were administered in 5% aqueous dextrose or other suitable diluent. Drug efficacy was determined by prolonged survival times of the test animals or reduced tumor mass as compared to negative controls. Test groups consisted of 10 mice. Control groups consisted of 20 mice. Animals were of one sex and of similar weight. Prior to testing, the tumor cell lines were propagated in BALB/cj mice. Tumor implants were aliquots of a donor pool brei,
# In the IP trials, the mean survival time (MST) of the groups of mice was determined, not counting animals surviving at the conclusion of the trial, and the mean lifespan comparison value of % MST(T/C) calculated, which value represents the ratio of treated to control group MST's expressed as a percentage.
# For C-26 colon adenocarcinoma, the tumor was implanted into CD2 F1 mice, IP and SC in separate trials. For the C-26 IP trial, the tumor was implanted IP on day 0. The test compound were administered four times a day IP from day 1 to day 9 for a total of nine days. BCNU was administered four times a day on days 1, 5 and 9.
# [8] = system: C-26 colon adenocarcinoma; test: In vivo activity against C-26 implanted subcutaneously (Example 44); parameters: species or system mouse; details: 10 mg/kg, compound 37 days 1-9, BCNU days 1, 5, 9
# Description: as §9, §10
# For the C-26 SC trial, the tumor was implanted SC into mice on day 0. The test compound was administered four times a day IP from day 1 to day 9 for a total of nine days. BCNU was administered four times a day on days 1, 5, and 9. The mean tumor masses were determined on day 11 and day 21, and the experiment terminated on day 60. The mean tumor mass (MTM) inhibition value of % MTM(T/C) was calculated, which value represents the ratio of treated to control group MTM's expressed as a percentage.
# [9] = read-out: In Vitro Cytotoxicity (IC50), A549, Table 2, ADR: average of two tests
# [10] = read-out: In Vitro Cytotoxicity (IC50), HT-29, Table 2, ADR: average of two tests
# [11] = read-out: In Vitro Cytotoxicity (IC50), A549, Table 1, three day MTT assay
# [12] = read-out: In Vitro Cytotoxicity (IC50), HT-29, Table 1, three day MTT assay
# [13] = 10 mg/kg, compound 37 days 1-9, BCNU days 1, 5, 9
Structure (SMILES),"IC50 [1, 9]","IC50 [2, 10]",IC50 [3],IC50 [5],other results
"Cc1ccc2c(c1)-n1cc(C(=O)O)c(=O)c3cc(F)c(N4CCC(N)C4)c(c31)O2 (stereo not drawn) [Example 4, 1-(3-aminopyrrolidin-1-yl)-2-fluoro-8-methyl-4-oxo-4H-quino[2,3,4-i,j][1,4]benzoxazine-5-carboxylic acid hydrochloride]",0.122 µg/mL,0.0431 µg/mL,0.0384 µg/mL,0.0221 µg/mL,IC50 [4]: 0.24 µg/mL
"NC1CCN(c2c(F)cc3c(=O)c(C(=O)O)cn4c3c2Oc2cc3c(cc2-4)OCO3)C1 (stereo not drawn) [Example 32, 1(3-aminopyrrolidin-1-yl)-2-fluoro-8,9-methylenedioxy-4-oxo-4H-quino[2,3,4-i,j][1,4]benzoxazine-5-carboxylic acid hydrochloride]",0.134 µg/mL,0.042 µg/mL,0.022 µg/mL,0.018 µg/mL,–
"Cc1ccc2c(c1)Oc1c(N3CC[C@@H](N)C3)c(F)cc3c(=O)c(C(=O)O)cn-2c13 [Example 19, 1-((3R)-3-aminopyrrolidin-1-yl)-2-fluoro-9-methyl-4-oxo-4H-quino[2,3,4-i,j][1,4]benzoxazine-5-carboxylic acid hydrochloride]",0.24 µg/mL,0.052 µg/mL,0.047 µg/mL,0.049 µg/mL,–
"CCOC(=O)c1cn2c3c(c(N4CCC(NC(C)=O)C4)c(F)cc3c1=O)Oc1cc(C)ccc1-2 (stereo not drawn) [6, step 2, Ethyl 1-(3-acetamidopyrrolidin-1-yl)-2-fluoro-9-methyl-4-oxo-4H-quino[2,3,4-i,j][1,4]benzoxazine-5-carboxylate]",–,–,–,–,"IC50 [1, 11]: 1.01 µg/mL; IC50 [2, 12]: 0.64 µg/mL; IC50 ([6]; Table 1, three day MTT assay): 0.65 µg/mL"
"Cc1ccc2c(c1)Oc1c(N3CC[C@H](N)C3)c(F)cc3c(=O)c(C(=O)O)cn-2c13 [Example 18, 1-((3S)-3-aminopyrrolidin-1-yl)-2-fluoro-9-methyl-4-oxo-4H-quino[2,3,4-i,j][1,4]benzoxazine-5-carboxylic acid hydrochloride]",0.11 µg/mL,0.04 µg/mL,0.047 µg/mL,0.024 µg/mL,IC50 [4]: 0.13 µg/mL
"NC1CCN(c2c(F)cc3c(=O)c(C(=O)N4CCOCC4)cn4c3c2Oc2ccccc2-4)C1 (stereo not drawn) [Example 29, 1-(3-aminopyrrolidin-1-yl)-2-fluoro-5-(1-morpholinocarbonyl)-4-oxo-4H-quino[2,3,4-i,j][1,4]benzoxazine trifluoracetate salt]",6 µg/mL,1.4 µg/mL,0.54 µg/mL,0.56 µg/mL,IC50 [4]: 49.4 µg/mL
"N[C@@H]1CCN(c2c(F)cc3c(=O)c(C(=O)O)cn4c3c2Oc2ccccc2-4)C1 [Example 17, 1-((3R)-3-aminopyrroidin-1-yl)-2-fluoro-4-oxo-4H-quino[2,3,4-i,j][1,4]benzoxazine-5-carboxylic acid hydrochloride]",0.042 µg/mL,0.068 µg/mL,0.021 µg/mL,0.011 µg/mL,IC50 [4]: 0.1 µg/mL
"NC1CCN(c2c(F)cc3c(=O)c(C(=O)Nc4ccc(F)cc4F)cn4c3c2Oc2ccccc2-4)C1 (stereo not drawn) [Example 30, 1-(3-aminopyrrolidin-1-yl)-2-fluoro-4-oxo-4H-quino[2,3,4-i,j][1,4]benzoxazine-5-(N-2,4-difluorphenyl)carboxamide hydrochloride]",4.1 µg/mL,1.6 µg/mL,0.6 µg/mL,1.3 µg/mL,–
"O=NN(CCCl)C(=O)NCCCl [BCNU, 1,3-bis(2-chloroethyl)-1-nitrosourea, reference compound]",–,–,–,–,"% MST(T/C) [7, 13]: 201%; MST [7, 13]: 41.4; test animals that survived the trial ([7]; BCNU 10 mg/kg (footnote b)): One of ten test animals survived the trial; % MTM(T/C) ([8]; day 11): 1%; MTM ([8]; day 11): 2 mg; % MTM(T/C) ([8]; day 21): 7%; MTM ([8]; day 21): 244 mg"
"CC(C)(C)c1ccc2c(c1)-n1cc(C(=O)O)c(=O)c3cc(F)c(N4CCC(N)C4)c(c31)O2 (stereo not drawn) [Example 21, 1-(3-aminopyrrolidin-1-yl)-8-t-butyl-2-flouro-4-oxo-4H-quino[2,3,4-i,j][1,4]benzoxazine-5-carboxylic acid hydrochloride]",0.247 µg/mL,0.078 µg/mL,0.063 µg/mL,0.045 µg/mL,–
"NC1CCN(c2c(F)cc3c(=O)c(C(=O)O)cn4c3c2Oc2cc(F)ccc2-4)C1 (stereo not drawn) [Example 7, 1-(3-aminopyrrolidin-1-yl)-2,9-difluoro-4-oxo-4H-quino[2,3,4-i,j][1,4]benzoxazine-5-carboxylic acid hydrochloride]",4.1 µg/mL,0.2 µg/mL,–,–,"IC50 [1, 11]: 4.1 µg/mL; IC50 [2, 12]: 0.21 µg/mL; IC50 ([6]; Table 1, three day MTT assay): 0.11 µg/mL; IC50 ([6]; Table 2, ADR value marked *: single test): 0.11 µg/mL"
"CCOC(=O)c1cn2c3c(c(N4CCC(NC(C)=O)C4)c(F)cc3c1=O)Oc1cc([N+](=O)[O-])ccc1-2 (stereo not drawn) [Example 5, Ethyl 1-(3-acetamidopyrrolidin1-yl)-2-fluoro-9-nitro-4-oxo-4H-quino[2,3,4-i,j][1,4]benzoxazine-5-carboxylate]",–,–,–,–,"IC50 [1, 11]: 0.13 µg/mL; IC50 [2, 12]: 0.078 µg/mL; IC50 ([6]; Table 1, three day MTT assay): 0.011 µg/mL"
"CCOC(=O)c1cn2c3c(c(N4CCC(N)C4)c(F)cc3c1=O)Oc1cc3c(cc1-2)OCO3 (stereo not drawn) [Example 35, Ethyl 1-(3-aminopyrrolidin-1-yl)-2-fluoro-8,9-methylenedioxy-4-oxo-4H-quino[2,3,4-i,j][1,4]benzoxazine-5-carboxylate]",0.26 µg/mL,0.093 µg/mL,0.034 µg/mL,0.077 µg/mL,–
"Cc1cc(C)c2c(c1)-n1cc(C(=O)O)c(=O)c3cc(F)c(N4CCC(N)C4)c(c31)O2 (stereo not drawn) [Example 15, 1-(3-aminopyrrolidin-1-yl)-8,10-dimethyl-2-fluoro-4-oxo-4H-quino[2,3,4-i,j][1,4]benzoxazine-5-carboxylic acid hydrochloride]",0.034 µg/mL,0.015 µg/mL,0.012 µg/mL,0.015 µg/mL,–
